Results: PMC10382516, “Exploring ND-011992, a quinazoline-type inhibitor targeting quinone reductases and quinol oxidases” (Scientific Reports, 2023)

How the values were obtained:
respiratory complex I = respiratory complex I (Escherichia coli, UniProt P0AFC7+P0AFD4+P33599); assay: d-NADH:decyl-ubiquinone oxidoreductase activity of E. coli CBO cytoplasmic membranes; assay type: biochemical; details: 1 mM KCN
E. coli bd-I oxidase = biological target: T1, E. coli bd-I oxidase (Escherichia coli, UniProt P0ABJ9); assay: Duroquinol:oxygen oxidoreductase activity of isolated bd-I oxidase; assay type: biochemical
T1 construct: His-tag; made in house; host or cells: E. coli BL21*Δcyo/pET28b(+)::cydAhisBX
Procedure: (§1) E. coli bd-I oxidase was isolated from strain BL21*Δcyo/pET28b( +)::cydAhisBX[13], bd-II oxidase from strain BL21*Δcyo/pET28b( +)::appChisBX[19] and bo3 oxidase from strain BL21*Δcyo/pET28b( +)::cyoAhisBCD (see ‘Methods’). The index “his” indicates the subunit of the enzyme complexes decorated with a His-tag. All strains were grown under oxic conditions in full medium. Cells were harvested and disrupted and cytoplasmic membranes were prepared by differential centrifugation. Membrane proteins were extracted with the detergent lauryl maltose neopentyl glycol (LMNG) and purified to homogeneity by affinity-, anion exchange- and size exclusion-chromatography (see Supplementary Figs. S7–S9).
(§2) The affinity of ND-011992 towards the isolated oxidases was determined by its inhibition of the duroquinol:oxygen oxidoreductase activity measured as decrease of oxygen concentration. […] Thus, there is a significant two-fold difference in binding of ND-011992 towards the two homologous oxidases. Furthermore, the IC50 is higher than that to respiratory complex I, showing that the compound binds better to complex I than to bd-I and to bd-II oxidase. Incorporation of bromine to the compound led to significant changes of inhibition.
(§3) The duroquinol:oxygen oxidoreductase activity of isolated E. coli bd-I, bd-II and bo3 oxidase was determined by monitoring the oxygen consumption with a Clark-type oxygen electrode (Oxyview System, Hansatech Instruments)[20],[33]. All steps were conducted at 30 °C. The reaction chamber was filled with 2 mL 20 mM MOPS, 20 mM NaCl, 0.003% LMNG, pH 7.0. After formation of a stable baseline, 10 μL dithiothreitol (DTT) (1 M) and 5 μL duroquinone in ethanol (100 mM) were added and incubated for 1 min. The non-enzymatic reaction rate was determined. 10 μL enzyme in LMNG (2 mg/mL) were added to start the reaction. The rates were corrected for the non-enzymatic reaction. After 1 min, the reaction was inhibited by adding various amounts (0.01–50 µM) of ND-011992 and 2, respectively. Each data point was measured in triplicates. The standard deviation of each measurement is provided.

[1] = set-up: method as in PMID 33283973; details: as mentioned in the original publication; cited from earlier work
mitochondrial complex I = mitochondrial complex I (Bos taurus, UniProt P03887+P17694+P42026); assay type: biochemical, bovine
[2] = system: NADH oxidase activity of membranes from E. coli strain BL21*Δcyo; assay: NADH oxidase activity of E. coli BL21*Δcyo cytoplasmic membranes (Clark-type oxygen electrode); assay type: biochemical, Escherichia coli
Procedure: (§4) The inhibitory effect of ND-011992 on the NADH oxidase activity of membranes from E. coli strain BL21*Δcyo was determined. This activity is mainly mediated by the primary NADH dehydrogenases and the terminal oxidases. Strain BL21*Δcyo chromosomally lacks the bo3-oxidase and contains the homologous bd-I and bd-II oxidases as the only terminal oxidases. BL21*Δcyo was grown in full medium, cells were harvested and disrupted and cytoplasmic membranes were prepared by differential centrifugation. With NADH as substrate, electrons might enter the respiratory chain either via complex I or via the alternative, non-energy converting NADH dehydrogenase, NDH-II. […] Second, deamino-NADH (d-NADH) was used as substrate to determine the d-NADH oxidase activity of BL21*Δcyo membranes. d-NADH is a substrate specific for complex I preventing electron entry to the respiratory chain via NDH-II[15],[16]. […] The shift of the IC50 in dependence from the substrate already indicates a high-affinity inhibition of respiratory complex I by ND-011992.
(§5) The (d-)NADH oxidase activity of cytoplasmic membranes was determined with an Clark-type oxygen electrode (Oxyview System, Hansatech Instruments) at 30 °C[19]. […] The non-enzymatic reaction was determined after formation of a stable baseline. […] The protein concentration of membranes were determined by the biuret-method[32]. […]

E. coli bo3 oxidase = biological target: T2, E. coli bo3 oxidase (Escherichia coli, UniProt P0ABI8); assay: Duroquinol:oxygen oxidoreductase activity of isolated bo3 oxidase; assay type: biochemical
T2 construct: made in house; host or cells: E. coli BL21*Δcyo/pET28b(+)::cyoAhisBCD
Procedure: as §1
Because it was claimed that ND-011992 is an inhibitor specific for bd oxidases, we also determined its IC50 towards the isolated bo3 oxidase. As bd oxidases, bo3 oxidase is also a quinol oxidase.
The duroquinol:oxygen oxidoreductase activity of isolated E. coli bd-I, bd-II and bo3 oxidase was determined by monitoring the oxygen consumption with a Clark-type oxygen electrode (Oxyview System, Hansatech Instruments)[20],[33]. All steps were conducted at 30 °C. The reaction chamber was filled with 2 mL 20 mM MOPS, 20 mM NaCl, 0.003% LMNG, pH 7.0. […] The non-enzymatic reaction rate was determined. […] Each data point was measured in triplicates. […]

E. coli bd-II oxidase = biological target: T3, E. coli bd-II oxidase (Escherichia coli, UniProt P26459); assay: Duroquinol:oxygen oxidoreductase activity of isolated bd-II oxidase; assay type: biochemical
T3 construct: His-tag; made in house; host or cells: E. coli BL21*Δcyo/pET28b(+)::appChisBX
Procedure: as §1, §2, §3

[3] = system: d-NADH oxidase activity of BL21*Δcyo membranes; assay: d-NADH oxidase activity of E. coli BL21*Δcyo cytoplasmic membranes; assay type: biochemical, Escherichia coli; details: d-NADH as substrate, 30 °C
Procedure: as §4, §5

T1 sequence (P0ABJ9 whole entry): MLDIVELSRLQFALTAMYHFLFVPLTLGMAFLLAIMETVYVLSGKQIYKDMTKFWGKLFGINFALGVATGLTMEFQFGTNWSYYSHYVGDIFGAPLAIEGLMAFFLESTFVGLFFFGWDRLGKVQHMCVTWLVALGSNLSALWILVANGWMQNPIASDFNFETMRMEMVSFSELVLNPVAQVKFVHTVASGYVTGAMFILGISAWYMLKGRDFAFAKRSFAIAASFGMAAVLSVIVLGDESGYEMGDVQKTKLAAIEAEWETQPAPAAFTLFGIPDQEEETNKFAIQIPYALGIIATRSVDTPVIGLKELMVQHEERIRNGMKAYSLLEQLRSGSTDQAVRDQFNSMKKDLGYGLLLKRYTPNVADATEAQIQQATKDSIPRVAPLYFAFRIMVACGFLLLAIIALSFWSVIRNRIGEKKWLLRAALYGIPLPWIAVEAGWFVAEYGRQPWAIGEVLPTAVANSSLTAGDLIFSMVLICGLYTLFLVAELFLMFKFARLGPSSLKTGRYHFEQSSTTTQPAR
T1 sequence (P56100 whole entry, further chain): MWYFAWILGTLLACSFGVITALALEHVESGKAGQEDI
T1 sequence (P0ABK2 whole entry, further chain): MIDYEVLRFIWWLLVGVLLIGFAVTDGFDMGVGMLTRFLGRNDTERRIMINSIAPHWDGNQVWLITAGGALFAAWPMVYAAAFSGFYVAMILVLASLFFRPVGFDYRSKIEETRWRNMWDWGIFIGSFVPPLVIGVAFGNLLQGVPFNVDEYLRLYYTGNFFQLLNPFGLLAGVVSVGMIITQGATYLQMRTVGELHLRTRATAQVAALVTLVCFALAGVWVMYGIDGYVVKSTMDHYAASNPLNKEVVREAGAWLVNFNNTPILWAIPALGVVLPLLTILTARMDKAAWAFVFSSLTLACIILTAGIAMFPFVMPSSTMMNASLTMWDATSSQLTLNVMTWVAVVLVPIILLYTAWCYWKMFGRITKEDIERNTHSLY
T3 sequence (P26458 whole entry): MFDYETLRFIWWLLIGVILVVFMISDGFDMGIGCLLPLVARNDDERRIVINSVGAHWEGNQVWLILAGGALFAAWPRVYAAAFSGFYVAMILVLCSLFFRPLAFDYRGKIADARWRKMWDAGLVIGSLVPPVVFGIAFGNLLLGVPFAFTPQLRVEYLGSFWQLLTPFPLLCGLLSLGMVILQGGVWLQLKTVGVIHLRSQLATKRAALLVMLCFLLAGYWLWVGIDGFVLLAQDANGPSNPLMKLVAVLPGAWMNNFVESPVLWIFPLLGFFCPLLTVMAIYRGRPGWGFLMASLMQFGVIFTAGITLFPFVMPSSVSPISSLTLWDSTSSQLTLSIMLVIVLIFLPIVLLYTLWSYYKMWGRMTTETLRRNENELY
T3 sequence (P24244 whole entry, further chain): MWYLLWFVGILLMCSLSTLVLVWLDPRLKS
T3 sequence (P26459 whole entry): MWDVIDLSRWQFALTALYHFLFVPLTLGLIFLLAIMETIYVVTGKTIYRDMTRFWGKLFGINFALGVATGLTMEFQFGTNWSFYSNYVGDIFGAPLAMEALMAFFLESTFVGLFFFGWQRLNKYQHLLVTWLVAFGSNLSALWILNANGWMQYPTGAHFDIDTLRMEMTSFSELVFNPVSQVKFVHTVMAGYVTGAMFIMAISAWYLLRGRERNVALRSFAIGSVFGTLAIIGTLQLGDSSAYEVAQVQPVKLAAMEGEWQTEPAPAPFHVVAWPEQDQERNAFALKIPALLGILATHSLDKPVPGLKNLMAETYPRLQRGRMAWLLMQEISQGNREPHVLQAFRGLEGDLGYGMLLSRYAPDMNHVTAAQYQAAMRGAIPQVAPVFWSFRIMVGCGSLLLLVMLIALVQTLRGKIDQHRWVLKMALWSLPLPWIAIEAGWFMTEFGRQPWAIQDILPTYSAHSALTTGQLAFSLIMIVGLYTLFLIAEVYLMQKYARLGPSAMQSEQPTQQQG
T2 sequence (P0ABJ6 whole entry): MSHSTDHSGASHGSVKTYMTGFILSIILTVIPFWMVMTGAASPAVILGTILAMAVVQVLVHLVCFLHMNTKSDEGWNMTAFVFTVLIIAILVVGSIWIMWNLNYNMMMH
T2 sequence (P0ABJ3 whole entry, further chain): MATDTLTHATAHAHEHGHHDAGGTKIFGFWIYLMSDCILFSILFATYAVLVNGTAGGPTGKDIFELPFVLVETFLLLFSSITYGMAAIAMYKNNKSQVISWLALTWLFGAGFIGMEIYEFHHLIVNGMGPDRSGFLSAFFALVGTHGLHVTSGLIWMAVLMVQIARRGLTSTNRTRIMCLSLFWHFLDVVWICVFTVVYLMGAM
T2 sequence (P0ABJ1 25-315, further chain): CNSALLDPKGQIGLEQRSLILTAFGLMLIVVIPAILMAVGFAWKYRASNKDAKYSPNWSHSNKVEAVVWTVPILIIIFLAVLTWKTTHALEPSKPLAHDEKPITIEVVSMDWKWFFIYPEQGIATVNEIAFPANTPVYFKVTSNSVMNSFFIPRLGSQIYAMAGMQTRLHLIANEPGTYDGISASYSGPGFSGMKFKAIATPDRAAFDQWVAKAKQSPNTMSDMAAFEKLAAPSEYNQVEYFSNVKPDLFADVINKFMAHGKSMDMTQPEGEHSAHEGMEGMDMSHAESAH
T2 sequence (P0ABI8 whole entry): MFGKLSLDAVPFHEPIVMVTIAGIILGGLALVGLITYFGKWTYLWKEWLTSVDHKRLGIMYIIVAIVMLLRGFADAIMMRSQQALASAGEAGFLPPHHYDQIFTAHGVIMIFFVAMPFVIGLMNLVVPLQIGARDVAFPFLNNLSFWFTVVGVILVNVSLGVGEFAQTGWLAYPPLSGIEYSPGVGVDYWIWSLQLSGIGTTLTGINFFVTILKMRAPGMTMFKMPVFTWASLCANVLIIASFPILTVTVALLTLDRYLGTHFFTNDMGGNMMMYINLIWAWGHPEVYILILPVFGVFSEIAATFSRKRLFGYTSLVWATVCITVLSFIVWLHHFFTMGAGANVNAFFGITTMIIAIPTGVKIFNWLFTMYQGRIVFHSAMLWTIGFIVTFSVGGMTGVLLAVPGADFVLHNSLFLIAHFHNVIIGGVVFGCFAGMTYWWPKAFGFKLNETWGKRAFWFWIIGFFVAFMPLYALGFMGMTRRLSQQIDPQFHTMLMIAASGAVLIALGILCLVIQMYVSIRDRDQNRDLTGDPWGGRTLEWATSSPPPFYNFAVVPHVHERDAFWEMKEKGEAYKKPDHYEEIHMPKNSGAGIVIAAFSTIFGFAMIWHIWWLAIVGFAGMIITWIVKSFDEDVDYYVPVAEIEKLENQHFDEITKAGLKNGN

Structure (SMILES) | IC50 (respiratory complex I) [nM] | IC50 (E. coli bd-I oxidase) [nM] | residual activity (E. coli bd-I oxidase; isolated bd-I oxidase, partial inhibition in titration) | pharmacokinetic properties [1] | IC50 (mitochondrial complex I) [µM] | residual activity (mitochondrial complex I; bovine heart mitochondrial membranes, NADH oxidase activity) | IC50 ([2]; E. coli BL21*Δcyo membranes, NADH as substrate, 30 °C) [nM] | IC50 (E. coli bo3 oxidase) [nM] | residual activity (E. coli bo3 oxidase; isolated bo3 oxidase, partial inhibition in titration) | IC50 (E. coli bd-II oxidase) [nM] | residual activity (E. coli bd-II oxidase; isolated bd-II oxidase, partial inhibition in titration) | IC50 [3] [nM] | effect on the NADH oxidase activity of E. coli membranes ([2]; micromolar concentration range)
FC(F)(F)c1ccc(Oc2ccc(Nc3ncnc4ccccc34)cc2)cc1 [ND-011992, N-(4-(4-(trifluoromethyl)phenoxy)phenyl)quinazolin-4-amine] | 120 | 630 | about 20% | poor | 3.27 | about 20% | 430 | 2470 | about 20% | 1300 | about 20% | 260 | 
FC(F)(F)c1ccc(Oc2ccc(Nc3ncnc4ccc(Br)cc34)cc2)cc1 [compound 2, 6-bromo-N-(4-(4-(trifluoromethyl)phenoxy)phenyl)quinazolin-4-amine] |  | 1030 |  |  |  |  |  |  |  | 130 |  |  | no effect
